Laboratory results reported in ChEMBL document CHEMBL4680212, “Discovery of T-1101 tosylate as a first-in-class clinical candidate for Hec1/Nek2 inhibition in cancer therapy” (Eur J Med Chem, 2020).
The source made the active and inactive calls. The calls are words filed in the database; no cut-off is given here.

How the values were obtained:
[1] = test system: K562; assay: Antiproliferative activity against human K562 cells measured after 96 hrs by MTT assay; format: functional, cell-based; conditions: K562, 96 h
[2] = molecular target: T1, HEC1/NEK2 (Homo sapiens) (UniProt P51955+O14777); assay: Inhibition of Hec1-Nek2 protein-protein interaction in human K562 cells at 100 nM measured after 6 hrs by coimmunoprecipitation assay; format: cell-based
T1 sequence (O14777 whole entry, looked up): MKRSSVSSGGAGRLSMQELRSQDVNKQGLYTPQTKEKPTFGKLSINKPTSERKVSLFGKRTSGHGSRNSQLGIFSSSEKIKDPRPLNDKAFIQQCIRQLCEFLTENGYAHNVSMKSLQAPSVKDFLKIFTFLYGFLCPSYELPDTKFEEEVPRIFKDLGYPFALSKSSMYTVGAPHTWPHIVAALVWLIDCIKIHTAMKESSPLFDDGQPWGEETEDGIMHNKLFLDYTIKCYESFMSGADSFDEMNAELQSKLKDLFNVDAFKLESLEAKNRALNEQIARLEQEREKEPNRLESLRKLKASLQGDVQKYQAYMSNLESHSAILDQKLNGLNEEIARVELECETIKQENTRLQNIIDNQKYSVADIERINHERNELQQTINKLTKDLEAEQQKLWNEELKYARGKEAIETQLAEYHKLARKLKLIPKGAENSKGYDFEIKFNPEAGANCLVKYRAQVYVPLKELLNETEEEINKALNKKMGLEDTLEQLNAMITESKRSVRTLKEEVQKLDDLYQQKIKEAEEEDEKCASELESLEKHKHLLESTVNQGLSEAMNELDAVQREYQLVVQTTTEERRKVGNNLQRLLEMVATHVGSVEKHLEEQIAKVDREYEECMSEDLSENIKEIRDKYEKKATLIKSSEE
T1 sequence (P51955 whole entry, looked up): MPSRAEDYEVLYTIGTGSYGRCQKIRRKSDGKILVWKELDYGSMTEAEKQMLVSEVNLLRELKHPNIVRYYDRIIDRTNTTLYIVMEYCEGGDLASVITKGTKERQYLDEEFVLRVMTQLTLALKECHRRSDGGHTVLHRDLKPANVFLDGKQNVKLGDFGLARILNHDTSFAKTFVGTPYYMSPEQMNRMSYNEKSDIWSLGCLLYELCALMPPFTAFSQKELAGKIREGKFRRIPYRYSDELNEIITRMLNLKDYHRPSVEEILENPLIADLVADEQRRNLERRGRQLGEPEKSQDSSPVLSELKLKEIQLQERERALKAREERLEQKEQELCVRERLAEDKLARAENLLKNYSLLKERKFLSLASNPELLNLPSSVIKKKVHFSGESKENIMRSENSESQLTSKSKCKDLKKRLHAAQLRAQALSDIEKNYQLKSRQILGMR

[3] = molecular target: T1, HEC1/NEK2 (Homo sapiens); assay: Inhibition of Hec1-Nek2 protein-protein interaction in human K562 cells assessed as reduction in Nek2 level at 1 uM by Western blot analysis; format: cell-based; conditions: TDE = time-dependent effect
[4] = test system: HeLa; assay: Induction of apoptosis in human HeLa cells assessed as increase in cleaved caspase 3 protein expression at 1 uM measured after 24 hrs by Western blot analysis; format: functional, cell-based
[5] = test system: HeLa; assay: Induction of apoptosis in human HeLa cells assessed as increase in cleaved PARP protein expression at 1 uM measured after 24 hrs by Western blot analysis; format: functional, cell-based
[6] = test system: HeLa; assay: Induction of apoptosis in human HeLa cells assessed as decrease in Mcl-1 expression at 1 uM measured after 24 hrs by Western blot analysis; format: functional, cell-based
[7] = test system: HeLa; assay: Induction of apoptosis in human HeLa cells assessed as decrease in XIAP expression at 1 uM measured after 24 hrs by Western blot analysis; format: functional, cell-based
[8] = test system: HeLa; assay: Induction of apoptosis in human HeLa cells assessed as decrease in cyclin A1 expression at 1 uM measured after 24 hrs by Western blot analysis; format: functional, cell-based
[9] = test system: HeLa; assay: Induction of apoptosis in human HeLa cells assessed as decrease in cyclin B1 expression at 1 uM measured after 24 hrs by Western blot analysis; format: functional, cell-based
[10] = test system: HeLa; assay: Induction of apoptosis in human HeLa cells assessed as decrease in cyclin D1 expression at 1 uM measured after 24 hrs by Western blot analysis; format: functional, cell-based
[11] = test system: MES-SA/Dx5; assay: Antiproliferative activity against human MES-SA/Dx5 cells measured after 96 hrs by CellTiter 96 Aqueous One Solution Reagent based assay; format: functional, cell-based
[12] = test system: NCI/ADR-RES; assay: Antiproliferative activity against human NCI/ADR-RES cells measured after 96 hrs by CellTiter 96 Aqueous One Solution Reagent based assay; format: functional, cell-based
[13] = test system: HeLa; assay: Down regulation of Pgp expression in human HeLa cells; format: functional, cell-based
[14] = test system: MDA-MB-231; assay: Down regulation of Pgp expression in human MDA-MB-231 cells; format: functional, cell-based

| IC50 [1] [nM] | inhibition [2] | Activity [3] | SMILES | Activity [4] | Activity [5] | Activity [6] | Activity [7] | Activity [8] | Activity [9] | Activity [10] | Activity [11] | Activity [12] | Activity [13] | Activity [14] |
| --- | --- | --- | --- | --- | --- | --- | --- | --- | --- | --- | --- | --- | --- | --- |
| 790 | – | – | Cc1cc(C)c(-c2csc(NC(=O)/C=C/c3ccc(C(C)(C)C)cc3)n2)c(C)c1 | – | – | – | – | – | – | – | – | – | – | – |
| – | Active | Tde | COCCOc1cnc(Sc2cc(C)c(-c3csc(NC(=O)c4ccncc4)n3)c(C)c2)cn1 | Active | Active | Active | Active | Active | Active | Active | Active | Active | Active | Active |
